Values quoted from earlier work as cited in patent publication US20130158016A1, “ANESTHETIC ASSOCIATION, ANESTHETIC COMPOSITION, AND […] VETERINARY USE” (Ouro Fino Participacoes e Empreendimentsos S/A, priority 2010, published 2013).

System: female dogs
Details: 2 mg/kg intravenously (slow), prophylactic

## COc1cccc(C2(O)CCCCC2CN(C)C)c1 (stereo not drawn) [tramadol]
  analgesia after ovariosalpingohisterectomy: analgesia similar to that produced by morphine
  effect on expired concentration of isoflurane: reducing the expired concentration of isoflurane
  neuroendocrine response to pain (catecholamine and cortisol): reducing the peaks of catecholamine and cortisol
